# Measured values as given in patent US20240116985A1, “STAPLED PEPTIDES AND METHODS THEREOF” (priority 2020, published 2024).
# Assay: CHI Log D procedure
# Type: physicochemical
# Settings: pH 7.4
Compound,CHI Log D,chromatographic logD
"CC[C@H](C)[C@H](NC(=O)[C@H](CC(=O)O)NC(=O)[C@H](C)NC(C)=O)C(=O)N[C@]1(C)CCN(C)C(=O)OCC=CCCCCC[C@@](C)(C(=O)N[C@@H](Cc2ccccc2)C(=O)N[C@@H](Cc2c[nH]c3ccccc23)C(=O)N[C@@H](Cc2c[nH]cn2)C(N)=O)NC(=O)[C@H](CCC(N)=O)NC(=O)[C@H](Cc2ccccc2)NC(=O)[C@H](C)NC(=O)[C@H](C)NC(=O)[C@H](CC2CCCCC2)NC(=O)[C@H](CC(=O)O)NC1=O (single isomer, unassigned) [I-73, Ac-Ala-Asp-Ile-RdN-Asp-Cha-Ala-Ala-Phe-Gln-S7-Phe-Trp-His-NH2]",1.723,
"CC(=O)N[C@@H](Cc1ccccc1)C(=O)N[C@@H](CC(=O)O)C(=O)N[C@@H](C)C(=O)N[C@]1(C)CCCCCCC=CCOC(=O)N2CC[C@@](C(=O)N[C@@H](Cc3ccccc3)C(=O)N[C@@H](Cc3c[nH]c4ccccc34)C(=O)N[C@@H](CCC(N)=O)C(N)=O)(C2)NC(=O)[C@H](C(C)C)NC(=O)[C@H](Cc2ccccc2)NC(=O)[C@H](C)NC(=O)[C@H](C)NC(=O)[C@H](CCc2ccccc2)NC(=O)[C@H](CC(=O)O)NC1=O (single isomer, unassigned) [I-98, Ac-Phe-Asp-Ala-R8-Asp-hPhe-Ala-Ala-Phe-Val-PyrS-Phe-Trp-Gln-NH2]",,2.08
"CC(=O)N1CCC[C@]12CC=CCCCC1(CCCC=CCCCCCC[C@@](C)(C(=O)N[C@@H](Cc3ccc(F)c(F)c3)C(=O)N[C@@H](Cc3c[nH]c4ccccc34)C(=O)N[C@@H](CCC(N)=O)C(N)=O)NC(=O)[C@H](C(C)C)NC(=O)[C@H](Cc3ccccc3)NC(=O)[C@H](C)NC(=O)[C@H](C)NC(=O)[C@H](CC(=O)O)NC(=O)[C@H](CC(=O)O)NC1=O)NC(=O)[C@H](C)NC(=O)[C@H](CC(=O)O)NC2=O (stereo partly drawn) [I-263, Ac-PL3-Asp-Ala-B5-Asp-Asp-Ala-Ala-Phe-Val-S8-34FF-Trp-Gln-NH2]",2.128,
"CC[C@H](C)[C@H](NC(=O)[C@H](CC(=O)O)NC(C)=O)C(=O)N[C@]1(C)CCN(C)C(=O)OCC=CCCCCC[C@@](C)(C(=O)N[C@@H](Cc2ccccc2)C(=O)N[C@@H](Cc2c[nH]c3ccccc23)C(=O)N[C@@H](Cc2c[nH]cn2)C(N)=O)NC(=O)[C@H](CCC(N)=O)NC(=O)[C@H](Cc2ccccc2)NC(=O)[C@H](C)NC(=O)[C@H](C)NC(=O)[C@H](CC(=O)O)NC(=O)[C@H](CC(=O)O)NC1=O [I-149, Ac-Asp-Ile-RdN-Asp-Asp-Ala-Ala-Phe-Gln-S7-Phe-Trp-His-NH2]",1.27,
"CC(=O)N1CCC[C@]12CC=CCCCC1(CCCC=CCCCCCC[C@@](C)(C(=O)N[C@@H](Cc3ccccc3)C(=O)N[C@@](C)(Cc3c[nH]c4ccccc34)C(=O)N[C@@H](CCC(N)=O)C(N)=O)NC(=O)[C@H](C(C)C)NC(=O)[C@H](Cc3ccccc3)NC(=O)[C@H](C)NC(=O)[C@H](C)NC(=O)[C@H](CCC(=O)O)NC(=O)[C@H](CC(=O)O)NC1=O)NC(=O)[C@H](C)NC(=O)[C@H](CC(=O)O)NC2=O (stereo partly drawn) [I-137, Ac-PL3-Asp-Ala-B5-Asp-Glu-Ala-Ala-Phe-Val-S8-Phe-aMeW-Gln-NH2]",2.174,
"CC(=O)N[C@@H](Cc1ccccc1)C(=O)N[C@@H](CC(=O)O)C(=O)N[C@@H](C)C(=O)N[C@]1(C)CCCCCCC=CCOC(=O)N2CC[C@@](C(=O)N[C@@H](CCC(=O)O)C(=O)N[C@@H](Cc3c[nH]c4ccccc34)C(=O)N[C@@H](CCC(N)=O)C(N)=O)(C2)NC(=O)[C@H](C(C)C)NC(=O)[C@H](Cc2ccccc2)NC(=O)[C@H](C)NC(=O)[C@H](C)NC(=O)[C@H](CC(=O)O)NC(=O)[C@H](CC(=O)O)NC1=O (single isomer, unassigned) [I-162, Ac-Phe-Asp-Ala-R8-Asp-Asp-Ala-Ala-Phe-Val-PyrS-Glu-Trp-Gln-NH2]",0.827,
"CC(=O)N[C@@H](Cc1ccccc1)C(=O)N[C@@H](CC(=O)O)C(=O)N[C@@H](C)C(=O)N[C@]1(C)CCCCCCC=CCOC(=O)N2CC[C@@](C(=O)N[C@@H](Cc3ccccc3)C(=O)N[C@@H](Cc3c[nH]c4ccccc34)C(=O)N[C@@H](CCC(N)=O)C(N)=O)(C2)NC(=O)[C@H](C(C)C)NC(=O)[C@H](Cc2ccccc2)NC(=O)[C@H](C)NC(=O)[C@H](C)NC(=O)[C@H](Cc2ccccc2)NC(=O)[C@H](CC(=O)O)NC1=O [I-100, Ac-Phe-Asp-Ala-R8-Asp-Phe-Ala-Ala-Phe-Val-PyrS-Phe-Trp-Gln-NH2]",1.993,
"CC(=O)N[C@@H](Cc1ccccc1)C(=O)N[C@@H](CC(=O)O)C(=O)N[C@@H](C)C(=O)N[C@]1(C)CCCCCCC=CCOC(=O)N2CC[C@@](C(=O)N[C@@H](CC(=O)O)C(=O)N[C@@H](Cc3c[nH]c4ccccc34)C(=O)N[C@@H](CCC(N)=O)C(N)=O)(C2)NC(=O)[C@H](C(C)C)NC(=O)[C@H](Cc2ccccc2)NC(=O)[C@H](C)NC(=O)[C@H](C)NC(=O)[C@H](CC(=O)O)NC(=O)[C@H](CC(=O)O)NC1=O [I-121, Ac-Phe-Asp-Ala-R8-Asp-Asp-Ala-Ala-Phe-Val-PyrS-Asp-Trp-Gln-NH2]",0.825,
"CC(=O)N[C@@H](Cc1ccccc1)C(=O)N[C@@H](CC(=O)O)C(=O)N[C@@H](C)C(=O)N[C@]1(C)CCCCCCC=CCOC(=O)N2CC[C@@](C(=O)N[C@@H](Cc3ccccc3)C(=O)N[C@@H](Cc3c[nH]c4ccccc34)C(=O)N[C@@H](CCC(N)=O)C(N)=O)(C2)NC(=O)[C@H](C(C)C)NC(=O)[C@H](Cc2ccccc2)NC(=O)[C@H](C)NC(=O)[C@H](C)NC(=O)[C@H](CC2CCCCC2)NC(=O)[C@H](CC(=O)O)NC1=O (single isomer, unassigned) [I-16, Ac-Phe-Asp-Ala-R8-Asp-Cha-Ala-Ala-Phe-Val-PyrS-Phe-Trp-Gln-NH2]",2.21,

# Same assay, conditions: pH 7.4, CHI Log D
row,Compound,chromatographic logD
1,"CC(=O)N[C@@H](Cc1ccccc1)C(=O)N[C@@H](CC(=O)O)C(=O)N[C@@H](C)C(=O)N[C@]1(C)CCCCCCC=CCOC(=O)N2CC[C@@](C(=O)N[C@@H](Cc3ccccc3)C(=O)N[C@@H](Cc3c[nH]c4ccccc34)C(=O)N[C@@H](CCC(N)=O)C(N)=O)(C2)NC(=O)[C@H](C(C)C)NC(=O)[C@H](Cc2cccc(C(N)=O)c2)NC(=O)[C@H](C)NC(=O)[C@H](C)NC(=O)[C@H](CC(=O)O)NC(=O)[C@H](CC(=O)O)NC1=O (single isomer, unassigned) [I-108, Ac-Phe-Asp-Ala-R8-Asp-Asp-Ala-Ala-3CBMF-Val-PyrS-Phe-Trp-Gln-NH2]",1.15
2,"CC(=O)N1CCC[C@]12CC=CCCCC1(CCCC=CCCCCCC[C@@](C)(C(=O)N[C@@H](Cc3ccccc3)C(=O)N[C@@H](Cc3c[nH]c4ccccc34)C(=O)N[C@@H](CCC(N)=O)C(N)=O)NC(=O)[C@H](C(C)C)NC(=O)[C@H](Cc3ccccc3)NC(=O)[C@H](C)NC(=O)[C@H](C)NC(=O)[C@H](Cc3ccc(-c4ccccc4)cc3)NC(=O)[C@H](CC(=O)O)NC1=O)NC(=O)[C@H](C)NC(=O)[C@H](CC(=O)O)NC2=O (stereo partly drawn) [I-235, Ac-PL3-Asp-Ala-B5-Asp-Bip-Ala-Ala-Phe-Val-S8-Phe-Trp-Gln-NH2]",3.2
3,"CC(=O)N[C@@H](Cc1ccccc1)C(=O)N[C@@H](CC(=O)O)C(=O)N[C@@H](C)C(=O)N[C@]1(C)CN(C)C(=O)OCC=CCCCCCC[C@@](C)(C(=O)N[C@@H](Cc2ccccc2)C(=O)N[C@@H](Cc2c[nH]c3ccccc23)C(=O)N[C@@H](CCC(N)=O)C(N)=O)NC(=O)[C@H](C(C)C)NC(=O)[C@H](Cc2ccccc2)NC(=O)[C@H](C)NC(=O)[C@H](C)NC(=O)[C@H](CC(=O)O)NC(=O)[C@H](CC(=O)O)NC1=O (single isomer, unassigned) [I-43, Ac-Phe-Asp-Ala-RgN-Asp-Asp-Ala-Ala-Phe-Val-S8-Phe-Trp-Gln-NH2]",1.31
4,"CC(=O)N1CCC[C@]12CC=CCCCC1(CCCC=CCCCCCC[C@@](C)(C(=O)N[C@@H](Cc3ccccc3)C(=O)N[C@@H](Cc3c[nH]c4ccccc34)C(=O)N[C@@H](CCC(N)=O)C(N)=O)NC(=O)[C@H](C(C)C)NC(=O)[C@H](Cc3ccccc3)NC(=O)[C@H](C)NC(=O)[C@H](C)NC(=O)[C@H](CCC(=O)O)NC(=O)[C@H](CC(=O)O)NC1=O)NC(=O)[C@H](C)NC(=O)[C@H](Cc1ccc(O)cc1)NC2=O (stereo partly drawn) [I-202, Ac-PL3-Tyr-Ala-B5-Asp-Glu-Ala-Ala-Phe-Val-S8-Phe-Trp-Gln-NH2]",2.62
5,"CC(=O)N[C@@H](Cc1ccccc1)C(=O)N[C@@H](CC(=O)O)C(=O)N[C@@H](C)C(=O)N[C@]1(C)CCCCCCC=CCOC(=O)N2CC[C@@](C(=O)N[C@@H](CCC(=O)O)C(=O)N[C@@H](Cc3c[nH]c4ccccc34)C(=O)N[C@@H](CCC(N)=O)C(N)=O)(C2)NC(=O)[C@H](C(C)C)NC(=O)[C@H](Cc2ccccc2)NC(=O)[C@H](C)NC(=O)[C@H](C)NC(=O)[C@H](CC(=O)O)NC(=O)[C@H](CC(=O)O)NC1=O (single isomer, unassigned) [I-161, Ac-Phe-Asp-Ala-R8-Asp-Asp-Ala-Ala-Phe-Val-PyrS-Glu-Trp-Gln-NH2]",0.816
6,"CC(=O)N[C@@H](Cc1ccccc1)C(=O)N[C@@H](CC(=O)O)C(=O)N[C@@H](C)C(=O)N[C@]1(C)CCCCCCC=CCOC(=O)N2CC[C@@](C(=O)N[C@@H](Cc3ccccc3)C(=O)N[C@@H](Cc3c[nH]c4ccccc34)C(=O)N[C@@H](CCC(N)=O)C(N)=O)(C2)NC(=O)[C@H](C(C)C)NC(=O)[C@H](Cc2ccccc2)NC(=O)[C@H](C)NC(=O)[C@H](C)NC(=O)[C@H](CCCC(=O)O)NC(=O)[C@H](CC(=O)O)NC1=O (single isomer, unassigned) [I-5, Ac-Phe-Asp-Ala-R8-Asp-Aad-Ala-Ala-Phe-Val-PyrS-Phe-Trp-Gln-NH2]",1.33
7,"CCCC[C@@H]1NC(=O)[C@H](CC(=O)O)NC(=O)[C@](C)(NC(=O)[C@H](C)NC(=O)[C@H](CC(=O)O)NC(=O)[C@H](Cc2ccccc2)NC(C)=O)CCCCCCC=CCOC(=O)N2CC[C@@](C(=O)N[C@@H](Cc3ccccc3)C(=O)N[C@@H](Cc3c[nH]c4ccccc34)C(=O)N[C@@H](CCC(N)=O)C(N)=O)(C2)NC(=O)[C@H](C(C)C)NC(=O)[C@H](Cc2ccccc2)NC(=O)[C@H](C)NC(=O)[C@H](C)NC1=O (single isomer, unassigned) [I-13, Ac-Phe-Asp-Ala-R8-Asp-nLeu-Ala-Ala-Phe-Val-PyrS-Phe-Trp-Gln-NH2]",2.01
